From patent US20120164128A1, “MEANS AND METHODS FOR COUNTERACTING POLYQ EXPANSION DISORDERS” (Academisch Medisch Centrum, priority 2009, published 2012)

B1: DnaJB8: member of the Hsp40/DnaJ heat shock protein family, co-expressed chaperone (protein, UniProt Q8NHS0 1-232, looked up)
DnaJ homolog subfamily B …: MANYYEVLGVQASASPEDIKKAYRKLALRWHPDKNPDNKEEAEKKFKLVSEAYEVLSDSKKRSLYDRAGCDSWRAGGGASTPYHSPFDTGYTFRNPEDIFREFFGGLDPFSFEFWDSPFNSDRGGRGHGLRGAFSAGFGEFPAFMEAFSSFNMLGCSGGSHTTFSSTSFGGSSSGSSGFKSVMSSTEMINGHKVTTKRIVENGQERVEVEEDGQLKSVTVNGKEQLKWMDSK

Experiments:
[1] = tested on: polyQ peptides derived from GFP-Ub-Q65; assay: Western blot against polyQ (1C2) of cells expressing GFP-Ub-Q65 with altered TPPII activity; assay type: cell-based; settings: for polyQ peptide levels: cells expressing GFP-Ub-Q65, TPPII co-expressed or inhibited, FIG. 10 panel A
Experimental: (§1) Cytosolic extracts were generated by lysing cells with 0.1% Triton X-100 for 30 minutes at 4° C., and supernatant was used after spinning down the lysate. 20 μg of cytosolic protein lysates were separated by 18% SDS-PAGE and transferred to Protan nitrocellulose membranes. Membranes were blocked in 5% dry milk in TBS containing 0.3% tween and probed with anti-Polyglutamine 1C2 (MAB1574, Millipore). Preparation of SDS-soluble and SDS-insoluble protein fractions was described before (example 1 and Carra et al., 2008). For peptidase inhibitory studies, transfected cells were treated for eight hours with different peptidase inhibitors before lysates were generated for Western blotting.
Large polyQ-peptides are preferably cleaved by endo-peptidases, as a few cleavages will result in smaller polyQ peptides below the disease-threshold that can be targeted by recycling amino-peptidases. To measure endo-peptidase activity against glutamines, we designed a probe containing 8 glutamines, flanked by a fluorophore (left) and a quencher (right). When the glutamines are cleaved, the quencher is released from the fluorophore, leading to fluorescence. Since the termini themselves are protected against exo-peptidases, only endo-peptidases can handle the peptide by cleaving the Q stretch. […] Since this experiment was performed with a small Q peptide, we next examined whether TPPII was able to prevent accumulation and aggregation of polyQ peptides derived from GFP-Ub-Q65. […] Some additional high molecular weight bands were present, representing oligomeric complexes. […] When testing two TPPII variants that have an altered conformation and lowered endo- peptidase activity, the levels of polyQ peptides (and resulting aggregates) increased again, showing that TPPII complex formation affects polyQ peptide degradation. […] This was achieved by either co-expressing TPPII or adding the specific inhibitor of TPPII, butabindide. […] Similarly, polyQ fragments generated by the proteasome upon degradation of polyQ expanded proteins were targeted by TPPII. […]

polyQ peptides = assay: Peptidase inhibitor study in cells co-expressing DnaJB6, Western blot against polyQ; assay type: cell-based; settings: inhibitor in combination with DnaJB6, treated for eight hours, FIG. 8B
Experimental: as §1
To elucidate which clearance pathway led to the degradation of the polyQ peptides, several inhibitors were used in combination with DnaJB6 and DnaJB8. Cysteine proteases were inhibited by E-64, aspartyl proteases by pepstatin A, metalloproteases by bestatin, serine proteases by phenylmethylsulfonyl (PMSF), proteasomes were inhibited by MG-132 and macroautophagy was inhibited by 3-methyladenine (3-MA).

polyQ peptides (Q65) = assay: SDS-soluble and SDS-insoluble fractions stained against polyQ; assay type: cell-based; settings: co-expression with Q65 peptides; for amount of polyQ peptides in the SDS-insoluble fraction: FIG. 8A
Experimental: Cytosolic extracts were generated by lysing cells with 0.1% Triton X-100 for 30 minutes at 4° C., and supernatant was used after spinning down the lysate. 20 μg of cytosolic protein lysates were separated by 18% SDS-PAGE and transferred to Protan nitrocellulose membranes. Membranes were blocked in 5% dry milk in TBS containing 0.3% tween and probed with 1:1000 anti-GFP (Molecular Probes), 1:100 anti-Ub (SIGMA) or the anti-Polyglutamine 1C2 (MAB1574, Millipore). Polyclonal Horseradish Peroxidase (HRP) conjugated secondary antibodies, anti-rabbit (Sigma) or anti-mouse (DAKO) were used 1:10.000 to detect the primary antibodies via Lumi-lightPLUS westernblotting substrate (Roche). Preparation of SDS-soluble and SDS-insoluble protein fractions was described before (Carra et al., 2008). Briefly, cells were trypsinized, homogenized, and heated for 10 min at 99° C. in sample buffer (70 mM Tris pH 6.8, 1.5% SDS, 20% glycerol) supplemented with 50 mM DTT 72 hours after transfection. Cell lysates were centrifuged for at least 30 minutes at 14.000 rpm at room temperature. Supernatants were used as SDS-soluble fraction to which 0.05% bromophenol blue was added. Pellets represented SDS-insoluble fractions and were dissolved in 100% formic acid, incubated 30 minutes at 37° C., lyophilized overnight in a speed vac (Eppendorf), and resuspended in a ¼ of the volume of sample buffer containing 0.05% bromophenol blue. Samples were separated on either 18% SDS-PAGE (anti-polyQ), or 12.5% SDS-PAGE (anti-GFP) and further treated as Western blots.
as §1, with “For peptidase inhibitory studies, transfected cells were treated for eight hours with different peptidase inhibitors before lysates were generated for Western blotting.” left out

HEK293T cells = assay: Scoring of cells with fluorescent aggregates by fluorescence microscopy; assay type: cell-based, Human
Experimental: Human embryonic kidney cells (HEK293T) and Mel JuSo fibroblast cells where cultured in IMDM (GIBCO) supplemented with 10% FCS and penicillin/streptomycin/L-glutamine. The cells where transiently transfected with Fugene6 (Roche) and analyzed at indicated time-points after transfection. Mouse STHdh^+/+(Q7) cells (kindly provided by Marcy MacDonald) (Trettel et al, 2000) and N2A neuroblastoma cells were cultured in DMEM supplemented with 10% FCS and penicillin/streptomycin/L-glutamine. Neuronal cells where transiently transfected with Lipofectamine 2000 (Invitrogen). Mouse STHdh^+/+(Q7) cells were incubated at 32° C. For toxicity measurements, N2A cells were analyzed by FACS LSRII for GFP fluorescence 24 or 48 hours after transfection, and the percentage of GFP-positive cells was quantified.
HEK293T cells were transfected with indicated constructs and the percentages of aggregates were scored using an inverted fluorescence microscope (Leica DMR). For imaging, Mel Juso cells were transiently transfected with indicated constructs and images where obtained using a confocal microscope (Leica SP2) using a 63× objective. Note that some pictures show ‘over-exposed’ fluorescent aggregates in order to visualize non-sequestered, cytoplasmic staining. […]

Row | Molecule | polyQ peptide levels [1] | polyQ peptide levels despite DnaJB6 (polyQ peptides) | amount of polyQ peptides in the SDS-insoluble fraction (polyQ peptides (Q65)) | aggregation on co-expression with GFP-Ub-Q65 (HEK293T cells) | also measured
1 | CCCCNC(=O)[C@@H]1Cc2ccccc2N1C(=O)[C@@H](N)CC [butabindide, reference compound] | accumulation of polyQ peptides |  |  |  | 
2 | O=S(=O)(F)Cc1ccccc1 [PMSF, phenylmethylsulfonyl] |  | re-appearance of polyQ peptides |  |  | 
3 | tripeptidyl peptidase II [TPPII] | reduced polyQ levels |  |  |  | aggregated and low-molecular weight Q65 peptide levels ([1]; co-expression with GFP-Ub-Q65, immunoblot 1C2, FIG. 7): decrease in both aggregated and low-molecular weight Q65 peptides
4 | CC(C)C[C@H](NC(=O)[C@H]1O[C@@H]1C(=O)O)C(=O)NCCCCN=C(N)N [E-64] |  | re-appearance of polyQ peptides |  |  | 
5 | DnaJB6: member of the Hsp40/DnaJ heat shock protein family, co-expressed chaperone |  |  | remarkably reduced | considerable decrease in aggregation | polyQ peptides in the SDS-soluble fraction (polyQ peptides (Q65); FIG. 8A and B): marked decrease
6 | B1 |  |  | remarkably reduced | considerable decrease in aggregation | 
